Paper PMC12541587 (Acta Pharmaceutica Sinica. B, 2025)
“And” between values parts separate entries of the source, which are not always exact repeats. Identical values can stand only once. Like-named read-outs stand apart in the source and are kept apart here.

What was measured:
σ1R [1] = format: binding, rat; conditions: Ki without DPH / Ki with DPH 250 μmol/L
σ1R [2] = target: σ1R (Rattus norvegicus, UniProt Q9R0C9); assay: biochemical; format: binding; conditions: for inhibition at 10 µM: read-out: σ1R Inhibition; for inhibition at 1 µM: read-out: σ1R inhibitory rate at 1 μmol/L
Sequence of σ1R (Rattus norvegicus, UniProt Q9R0C9) (Q9R0C9 whole entry): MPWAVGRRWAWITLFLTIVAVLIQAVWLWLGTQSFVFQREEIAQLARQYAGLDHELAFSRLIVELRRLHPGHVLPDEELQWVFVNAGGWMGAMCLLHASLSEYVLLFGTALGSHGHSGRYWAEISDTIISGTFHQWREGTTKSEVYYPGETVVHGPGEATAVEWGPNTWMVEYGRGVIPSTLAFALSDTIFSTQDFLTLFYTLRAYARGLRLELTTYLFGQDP

σ2R = target: T1, σ2R (Rattus norvegicus, UniProt Q5U3Y7); assay: σ2R radioligand binding assay
T1 sequence (Q5U3Y7 1-176): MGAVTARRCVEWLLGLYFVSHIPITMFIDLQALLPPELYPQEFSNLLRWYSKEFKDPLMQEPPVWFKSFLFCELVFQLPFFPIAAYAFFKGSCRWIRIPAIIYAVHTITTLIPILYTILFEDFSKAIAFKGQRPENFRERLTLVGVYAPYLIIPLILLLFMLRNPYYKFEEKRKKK

σ1R [3] = conditions: read-out: σ1R Ki (clinical σ1R agonists); cited from earlier work
σ1R [4] = conditions: healthy volunteers and Huntington disease patients; cited from earlier work
D2/D3 receptor = conditions: healthy volunteers and Huntington disease patients; cited from earlier work
dopamine D3 = conditions: read-out: dopamine D3 Ki; cited from earlier work
catalepsy = assay: Catalepsy bar test; format: in vivo, mice
CYP1A2 = target: T2, CYP1A2 (Homo sapiens, UniProt P05177); assay: in vitro
T2 sequence (P05177 1-516): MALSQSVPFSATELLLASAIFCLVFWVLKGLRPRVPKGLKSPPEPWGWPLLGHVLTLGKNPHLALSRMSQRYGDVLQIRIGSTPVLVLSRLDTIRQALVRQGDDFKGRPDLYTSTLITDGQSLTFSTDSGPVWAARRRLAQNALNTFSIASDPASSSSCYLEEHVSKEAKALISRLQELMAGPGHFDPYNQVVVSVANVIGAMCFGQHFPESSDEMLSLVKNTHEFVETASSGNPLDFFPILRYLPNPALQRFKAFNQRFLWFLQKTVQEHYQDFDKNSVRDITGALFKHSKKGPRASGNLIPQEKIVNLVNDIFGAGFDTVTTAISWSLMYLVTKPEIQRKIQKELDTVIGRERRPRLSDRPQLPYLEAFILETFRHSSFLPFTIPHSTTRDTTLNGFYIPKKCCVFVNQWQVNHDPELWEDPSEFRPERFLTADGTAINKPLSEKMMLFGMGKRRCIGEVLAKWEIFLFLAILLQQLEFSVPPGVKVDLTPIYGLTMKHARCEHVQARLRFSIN

CYP2C19 = CYP2C19 (Homo sapiens, UniProt P33261); assay: CYP450 inhibition: CYP2C19; conditions: probe S-mephenytoin (35 μmol/L)
Sequence of CYP2C19 (P33261 whole entry): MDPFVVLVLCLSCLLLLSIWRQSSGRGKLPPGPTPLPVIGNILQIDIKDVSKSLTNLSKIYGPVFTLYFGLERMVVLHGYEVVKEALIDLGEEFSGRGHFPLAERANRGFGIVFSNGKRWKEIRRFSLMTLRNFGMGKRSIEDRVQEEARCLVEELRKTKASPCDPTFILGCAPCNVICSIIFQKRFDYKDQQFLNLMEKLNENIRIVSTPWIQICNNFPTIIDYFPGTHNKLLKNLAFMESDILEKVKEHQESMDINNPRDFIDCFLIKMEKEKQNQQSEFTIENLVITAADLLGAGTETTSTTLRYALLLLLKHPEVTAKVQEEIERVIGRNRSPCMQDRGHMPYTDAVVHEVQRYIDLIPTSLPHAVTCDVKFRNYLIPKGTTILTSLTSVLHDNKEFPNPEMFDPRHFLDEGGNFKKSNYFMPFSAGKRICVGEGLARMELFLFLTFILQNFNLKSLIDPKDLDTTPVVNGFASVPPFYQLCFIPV

σ1R-LgBiT and BiP-SmBiT = σ1R-LgBiT and BiP-SmBiT (Homo sapiens, UniProt Q99720); assay: NanoBiT σ1R-BiP heterodimerization assay; format: cell-based; conditions: 10 μmol/L
Sequence of σ1R-LgBiT and BiP-SmBiT (Q99720 whole entry): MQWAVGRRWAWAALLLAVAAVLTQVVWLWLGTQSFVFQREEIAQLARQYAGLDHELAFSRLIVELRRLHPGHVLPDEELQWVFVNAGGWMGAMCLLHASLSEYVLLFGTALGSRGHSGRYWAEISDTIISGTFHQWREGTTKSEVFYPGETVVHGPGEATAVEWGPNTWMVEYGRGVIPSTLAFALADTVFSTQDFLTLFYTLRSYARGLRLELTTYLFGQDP

For C=CCN1CCC2(C)c3cc(O)ccc3CC1C2C (stereo not shown) [SKF10047], the “Ratios Ki/(Ki + phenytoin)” value (σ1R [1]) was 7.10 and 7.10 ± 0.74 and the Ki (σ1R [2]) was 292 ± 6.18 nM.
With CC(C)=CCN1CC[C@]2(C)c3cc(O)ccc3C[C@H]1[C@H]2C [(+)-Pentazocine] the inhibition at 10 µM (σ1R [2]) was 99% and the Ki (σ2R) was 673 ± 27.5 nM.
Compound COc1ccc(/C(C)=N/OCCCN2CCCCC2)cc1 [15l] has a Ki (σ1R [2]) of 39.4 ± 3.4 nM and an inhibition at 10 µM (σ1R [2]) of 93.2%.
For C/C(=N\OCCN1CCOCC1)c1ccccc1 [16p], the inhibition at 10 µM (σ1R [2]) was 74.4% and the inhibition at 1 µM (σ1R [2]) was -8.25%.
In the case of FC(F)(F)c1ccc2c(c1)OCC/C2=N\OCCCN1CCCCC1 [15o], the Ki (σ1R [2]) is reported as 76.2 ± 2.92 nM and the inhibition at 10 µM (σ1R [2]) is reported as 99.3%.
For CCCN1CCC(c2cccc(S(C)(=O)=O)c2)CC1 [Pridopidine], the Ki (σ1R [3]) is given as 57 nM, the “σ1R occupancy (PET)” value (σ1R [4]) is given as roughly 90% and the “D2/D3 receptor occupancy (PET)” value (D2/D3 receptor) is given as roughly 3%. The Ki (dopamine D3) was 1630 nM.
With CN(C)CCN(C)CCc1ccc(Cl)c(Cl)c1 [BD1047] the “Ratios Ki/(Ki + phenytoin)” value (σ1R [1]) was 0.63 ± 0.20 and the Ki (σ1R [2]; read-out: σ1R Ki, mean ± SEM, n = 3) was 0.87 ± 0.15 nM.
C/C(=N\OCCN1CCOCC1)c1ccc(Br)cc1 [16r] gave an inhibition at 10 µM (σ1R [2]) of 106% and an inhibition at 1 µM (σ1R [2]) of 55.4%.
In the case of Cc1nc2n(c(=O)c1CCN1CCC(c3noc4cc(F)ccc34)CC1)CCCC2 [risperidone], the “mean catalepsy duration at peak response” value (catalepsy; 3 mg/kg risperidone, 60 min post-administration) is reported as 49.57 min and the cataleptic response (catalepsy; oral, 15d 10 to 45 mg/kg, risperidone 3 mg/kg) is reported as “catalepsy induced by 3 mg/kg risperidone was observed”.
For C/C(=N\OCCN1CCOCC1)c1ccc(C)cc1 [16s], the inhibition at 10 µM (σ1R [2]) was 66.2%.
Work on COCCCC/C(=N\OCCN)c1ccc(C(F)(F)F)cc1 [Fluvoxamine] yielded an inhibition at 10 μmol/L (CYP1A2) of 95.7%, an inhibition at 10 µM (σ1R [2]) of 81.8% and an inhibition at 10 μmol/L (CYP2C19) of 95%.
With COc1ccc(/C(C)=N/OCCN2CCOCC2)cc1 [16q] the inhibition at 10 µM (σ1R [2]) was 93.2% and the inhibition at 1 µM (σ1R [2]) was 37.8%.
For O=C(OCCN1CCOCC1)C1(c2ccccc2)CCCCC1 [PRE084], the “σ1R-LgBiT/BiP-SmBiT interaction, 10 min treatment” value (σ1R-LgBiT and BiP-SmBiT) was “decreased this interaction” and the Ki (σ1R [2]; read-out: σ1R Ki) was 23.1 ± 3.17 nM.
